Measurements as given in patent publication US10149907B2, “Combinations of a photosensitizer with a hydrogen sulfide donor, thioredoxin inhibitor or nitroxide for use in photodynamic therapy” (UNIVERSITY OF EXETER, priority 2014, dated 2018).
“Also recorded” adds a separate entry of the source. Like-named read-outs stand apart in the source and are kept apart here.

Legend:
A431 cells [1] = test: cells; format: cell-based; conditions: for effect on photodynamic cell killing compared to MAL and irradiation only / modes of cell death (early apoptosis, late apoptosis, necrosis): 1 mM MAL + SRHD 1 μM + irradiation; for modes of cell death (early apoptosis, late apoptosis, necrosis): compared to MAL and irradiation, FIG. 2, 4
Method: A431 cells (human epithelial squamous cell carcinoma cells) were seeded at a density of 1×10^6 cells/ml in T12.5 cm^2 flasks and incubated under 2% O2 for 48 h prior to treatment. After 24 h, the culture medium was replaced and the cells were placed back into the incubators under 2% O2. Following this incubation period, the culture medium was then removed and the flasks were washed with PBS. The cells were then treated with one of the SRHDs and incubated at 2% O2 for 2 h, after which MAL was added to a final concentration of 1 mM and the cells were incubated at 2% O2 for 3 h. This meant in total, the cells were treated with the SRHDs for 5 h.
Following this final incubation, cell death was analysed by annexin V-FITC and propidium iodide staining in conjunction with flow cytometry.
(§1) Cell death analysis by flow cytometry was carried out using the annexin V-FITC/propidium iodide protocol. This protocol allows a quantitative assessment of cell death, particularly specific modes of death, and involves staining the cells with fluorescein isothiocyanate-conjugated annexin A5 (annexin V-FITC) and propidium iodide (PI). Positive staining with annexin V-FITC alone indicates an apoptotic cell; positive staining with PI alone indicates a necrotic cell and dual staining of both annexin V and PI indicates a “late apoptotic” cell.
From each flask being assessed, the old medium was removed and placed into a corresponding individual 15 ml Falcon tube in order to collect any cells that may have detached from the surface. The flask was washed once with 1 ml PBS; also deposited in the Falcon tubes. Trypsin (500 μl) was added to each flask and the flasks were returned to the incubator with their caps loosened. Cell detachment was monitored using an inverted light microscope, until 50% of the cells were detached. The flasks were then lightly tapped to detach the remainder of the cells. Medium (2 ml) was added to each flask in order to neutralise the trypsin present before being removed and dispensed into the Falcon tubes. One more wash with PBS was carried out in order to ensure any cells left in the flasks were collected. The Falcon tubes were then centrifuged at 490 g for 3 min, forming a pellet at the bottom of the tube. The supernatant was discarded, and the cells were re-suspended in 5 ml of PBS, in order to wash them, before being centrifuged again at 490 g for 3 min. […] The Falcon tubes were placed on ice and in the dark for 15 min to allow annexin V staining. […] The samples were then ready to be assessed by flow cytometry.
(§2) The following flow cytometry process of sample detection was used. When using annexin V-FITC and PI, the detectors being used were FL1 (λmax=520 nm) and FL3 (λmax=670 nm), respectively, each with their own logarithmic histogram generated by the software. The intensity of the fluorescence detected is measured on a logarithmic scale on the x-axis and the y-axis represents the number of cells detected at a given fluorescence intensity. A plot of FL1/FL3 produces a 4-quadrant graph, where unstained and untreated cells are located in the bottom left quadrant, representing any cells found in the 1st decade of the single plot logarithmic histograms. Single staining with annexin V-FITC and PI are located in the bottom right and top left quadrant, respectively, and dual staining is located in the top right quadrant. These quadrants represent any cells detected above the 1st decade of the logarithmic histograms.

A431 cells [2] = conditions: for cell viability, percentage of untreated control: 500 μM
Method: A431 cells were seeded at a density of 1×10^5 cells/ml in 96 well plates and incubated under 2% O2 for 48 h prior to treatment. After 24 h, the culture medium was replaced and the cells were placed back into the incubators under 2% O2. Following this incubation period, the culture medium was then removed and the plates were washed with PBS. The cells were then treated with 1 mM MAL in the absence or presence of one of the compounds of interest and then incubated again at 2% O2 for 3 h. For experiments carried out with SRHDs, this treatment step was carried out for 5 h at 2% O2. After treatment, the cells were washed with PBS, the culture medium was replaced and the cells were placed back under 2% O2 for 3 h. Following this final incubation, cell death was analysed using the resazurin viability assay.
Resazurin (7-hydroxy-3H-phenoxazin-3-one 0-oxide) is a weakly fluorescent blue dye used primarily in oxidation-reduction cell viability assays. Irreversible NADH-dependent reduction by the mitochondria in mammalian cells leads to the production of resorufin, a highly fluorescent product with excitation at 571 nm, emission at 585 nm.
A431 cells were seeded into 96 well plates at a density of 1.5*10^6 cells per ml (200 μl per well, 3*10^5 cells) and incubated for 24 h to adhere. Following incubation, the cells were washed and treated with the compound of interest for the relevant time, and then washed with PBS. […] After a 2 h incubation, the fluorescence of each well was measured (excitation: 571 nm, emission: 585 nm) using a fluorescence plate reader. Data from these experiments was plotted as a percentage of cell viability compared to untreated control cells.

A431 cells [3] = test: Photodynamic cell killing in the presence of inhibitors of the thioredoxin antioxidant system or nitroxides (annexin V-FITC/propidium iodide flow cytometry); format: cell-based, human; conditions: for cell death: 3 h, irradiation
Method: After this treatment, the cells were irradiated for 5 min (630 nm, 25 J/cm^2), then washed with PBS and the culture medium was replaced, after which the cells were placed back under 2% O2 and incubated for a further 3 h. Following this final incubation, cell death was analysed by annexin V-FITC and propidium iodide staining in conjunction with flow cytometry.
as §1
From each flask being assessed, the old medium was removed and placed into a corresponding individual 15 ml Falcon tube in order to collect any cells that may have detached from the surface. The flask was washed once with 1 ml PBS; also deposited in the Falcon tubes. Trypsin (500 μl) was added to each flask and the flasks were returned to the incubator with their caps loosened. Cell detachment was monitored using an inverted light microscope, until 50% of the cells were detached. The flasks were then lightly tapped to detach the remainder of the cells. Medium (2 ml) was added to each flask in order to neutralise the trypsin present before being removed and dispensed into the Falcon tubes. One more wash with PBS was carried out in order to ensure any cells left in the flasks were collected. The Falcon tubes were then centrifuged at 490 g for 3 min, forming a pellet at the bottom of the tube. The supernatant was discarded, and the cells were re-suspended in 5 ml of PBS, in order to wash them, before being centrifuged again at 490 g for 3 min. The wash stage was carried out once more before re-suspending the cell pellet in 95 μl of ice cold calcium (Ca^2+) buffer (50 mM HEPES, 700 mM NaCl, 12.5 mM CaCl2, pH 7.4) and adding 5 μl 12.5 μg/ml of annexin V-FITC (final concentration, 1.25 μg/ml), under reduced light conditions to prevent bleaching of the FITC. The Falcon tubes were placed on ice and in the dark for 15 min to allow annexin V staining. After 15 min, 860 μl of Ca^2+ buffer (10 mM Hepes adjusted to pH 7.4, 140 mM NaCl and 2.5 mM CaCl2) was added, followed by 40 μl of 1 mg/ml PI in water (final concentration, 0.04 mg/ml) to give a final volume of 1 ml. The samples were then ready to be assessed by flow cytometry.
as §2

A431 cells [4] = test: Mitochondrial reactive oxygen species generation during photodynamic irradiation, MitoSOX flow cytometry; format: cell-based, human; conditions: 3 hours, irradiated
Method: A431 cells were treated concurrently with AP39-C10 (10, 100 or 1000 nM) for 5 hours, MAL (1 mM) for 3 hours and MitoSOX (2.5 μM) for 1 hour, after which they were irradiated for 5 min (630 nm, 25 J/cm^2) and MitoSOX (mito-2-OH-E^+) fluorescence, indicative of mitochondrial oxidant production, was immediately analysed by flow cytometry. Results are set out in FIG. 23.
Mitochondria-targeted dihydroethidium (i.e. MitoSOX) was used to assess the production of mitochondrial reactive oxygen species (ROS) by PpIX photochemical reactions and to determine the effects of AP39-C10 on this process. All of the results are represented as a percentage of the untreated controls (100.0±8.5%). The fluorescence of the photoirradiated cells, which had been pre-treated with MAL, was 193.7±7.3% (p<0.001 c.f. untreated controls).

[5] = 1 mM MAL + SRHD 1 μM (5 h) + irradiation, 3 h post-irradiation
[6] = dark toxicity, without irradiation, SRHD 1 μM, 5 h, FIG. 1, 3

Question: Which cell death (A431 cells [1]; [5]) does the source give for NC(=S)c1ccc(O)cc1 [4-HTB, 4-hydroxythiobenzamide] here?
Answer: 22.5±5.5%

Question: What about the “effect on photodynamic cell killing compared to MAL and irradiation only” value (A431 cells [1]) of the same compound?
Answer: no statistically significant effect on photodynamic cell killing

Question: What about the “modes of cell death (early apoptosis, late apoptosis, necrosis)” value (A431 cells [1]) of the same compound?
Answer: no effect on the types of cell death observed compared to treatment with MAL and irradiation

Question: What about the “concentration up to which treatment was well tolerated” value (A431 cells [2]; 5 hours, range 0.1-500 μM) of the same compound?
Answer: up to 500 μM

Question: With Oc1ccc(-c2cc(=S)ss2)cc1 [ADT-OH, 5-(4-hydroxyphenyl)-3H-1,2-dithiole-3-thione] as the compound, how does the cell death (A431 cells [1]; [5]) read?
Answer: 25.7±6%

Question: What about the “effect on photodynamic cell killing compared to MAL and irradiation only” value (A431 cells [1]) of the same compound?
Answer: no statistically significant effect on photodynamic cell killing

Question: And the “modes of cell death (early apoptosis, late apoptosis, necrosis)” value (A431 cells [1])?
Answer: no effect on the types of cell death observed compared to treatment with MAL and irradiation

Question: And the “cell viability, percentage of untreated control” value (“cell viability, percentage” below) (A431 cells [2]; 5 hours, FIG. 15, 16)?
Answer: 76.7±1.3%

Question: O=C(CCCCCCC[P+](c1ccccc1)(c1ccccc1)c1ccccc1)Oc1ccc(-c2cc(=S)ss2)cc1 [AP39-C8] was tested. Which cell death (A431 cells [1]; [5]) did it give?
Answer: 46.3±2.1%

Question: And the cell death (A431 cells [1]; [6])?
Answer: 14.9±2.3%

Question: What about the “cell viability, percentage” value (A431 cells [2]; 5 hours, FIG. 15, 16) of the same compound?
Answer: 20.1±4.5%

Question: For O=C(CCCCCCCCCCC[P+](c1ccccc1)(c1ccccc1)c1ccccc1)Oc1ccc(-c2cc(=S)ss2)cc1 [AP39-C12], which cell death (A431 cells [1]; [5]) is on record?
Answer: 51.6±3.2%

Question: What about the cell death (A431 cells [1]; [6]) of the same compound?
Answer: 11.7±1.5%

Question: What about the “cell viability, percentage” value (A431 cells [2]; 5 hours, FIG. 15, 16) of the same compound?
Answer: 13.3±1.8%

Question: NC(=S)c1ccc(OC(=O)CCCCCCC[P+](c2ccccc2)(c2ccccc2)c2ccccc2)cc1 [AP123-C8] was tested. Which cell death (A431 cells [1]; [5]) did it give?
Answer: 67.5±6.4%

Question: What about the cell death (A431 cells [1]; [6]) of the same compound?
Answer: 13.2±3.1%

Question: What about the “cell viability, percentage” value (A431 cells [2]; 5 hours, FIG. 15, 16) of the same compound?
Answer: 13.2±1.8%

Question: What does the source list for NC(=S)c1ccc(OC(=O)CCCCCCCCCCC[P+](c2ccccc2)(c2ccccc2)c2ccccc2)cc1 [AP123-C12]?
Answer: cell death (A431 cells [1]; [5]): 72.5±2.0%; modes of cell death (early apoptosis, late apoptosis, necrosis) (A431 cells [1]): less effect on early apoptosis, instead increasing late apoptosis and necrosis; cell death (A431 cells [1]; [6]): 12.7±3.0%; cell viability, percentage of untreated control (A431 cells [2]; 5 hours, FIG. 15, 16): 17.0±0.7%

Question: CCC(C)SSc1ncc[nH]1 (stereo not drawn) [PX12, 2-[(1-Methylpropyl)dithio]-1H-imidazole] was tested. Which cell death (A431 cells [3]; 1 mM MAL + co-treatment 10 μM) did it give?
Answer: 70.5±4.5%

Question: What about the “potentiating effect on MAL photodynamic cell killing” value (A431 cells [3]; summary of Examples 2A, 3A) of the same compound?
Answer: more robust potentiating effect

Question: What about the “cell viability, percentage” value (A431 cells [2]; 24 hours) of the same compound?
Answer: 47.5±4.9%

Question: What about the “concentration up to which well tolerated / no cytotoxicity” value (A431 cells [2]; 24 hours) of the same compound?
Answer: ≤ 100 µM

Question: And the “MitoSOX fluorescence, percentage of untreated cells” value (A431 cells [4]; MAL 1 mM + co-treatment 10 μM)?
Answer: 211.4±17.6%

Question: Which results are given for CC[PH](CC)(CC)[Au][S][C@@H]1O[C@H](COC(C)=O)[C@@H](OC(C)=O)[C@H](OC(C)=O)[C@H]1OC(C)=O [auranofin]?
Answer: modes of cell death (A431 cells [3]): primarily increased necrotic cell death; also recorded: slightly increased late apoptotic cell death; also recorded: concentration-dependent increases in late apoptosis and necrosis, with little effect on early apoptosis; potentiating effect on MAL photodynamic cell killing (A431 cells [3]): more robust potentiating effect; concentration up to which well tolerated / no cytotoxicity (A431 cells [2]; human): ≤ 10 µM

Question: aurothiomalate [ATM] was tested. Which cell death (A431 cells [3]; 1 mM MAL + co-treatment 20 μM) did it give?
Answer: 66.7±4.9%

Question: What about the “potentiating effect on MAL photodynamic cell killing” value (A431 cells [3]; summary of Examples 2A, 3A) of the same compound?
Answer: more robust potentiating effect

Question: What about the “tolerance (dark toxicity)” value (A431 cells [2]; 0.1-500 μM, 24 hours) of the same compound?
Answer: well tolerated at all concentrations tested

Question: What about the “MitoSOX fluorescence, percentage of untreated cells” value (A431 cells [4]; MAL 1 mM + co-treatment 20 μM) of the same compound?
Answer: 192.4±5.6%
